{"source": "patent US10576085B2", "about": "“Substituted aminopurine compounds, compositions thereof, and methods of treatment therewith” (Signal Pharmaceuticals, LLC, priority 2016, dated 2020)", "test_system": "cancer cell lines of Table 2", "assay": "Multiplexed cytotoxicity assay: apoptosis (activated caspase-3; Cal_X2, Cal_X5, Max_Fold_Change)", "type": "cell-based", "procedure": "Cells are grown in RPMI1640, 10% FBS, 2 mM L-alanyl-L-Glutamine, 1 mM Na pyruvate or a special medium in a humidified atmosphere of 5% CO2 at 37° C. Cells are seeded into 384-well plates and incubated in a humidified atmosphere of 5% CO2 at 37° C. Compounds are added 24 h post cell seeding. At the same time, a time zero untreated cell plate is generated. After a 72 hour incubation period, cells are fixed and stained with fluorescently labeled antibodies and nuclear dye to allow visualization of nuclei, apoptotic cells and mitotic cells. Apoptotic cells are detected using an anti-active caspase-3 antibody. Mitotic cells are detected using an anti phospho-histone-3 antibody. Compounds are serially diluted 3.16-fold and assayed over 10 concentrations in a final assay concentration of 0.1% DMSO from the highest test concentration of 10 μM. Automated fluorescence microscopy was carried out using a Molecular Devices ImageXpress Micro XL high-content imager, and images are collected with a 4× objective.\nThe activated caspase-3 marker labels cells from early to late stage apoptosis. Concentrations of test compound that cause a 5-fold induction in the caspase-3 signal (Cal_X5) indicate significant apoptosis induction. The maximal induction of caspase 3 by compound in comparison with DMSO control is reported as Max_Fold_Change.\nIn Another Experiment, Cells were Grown in RPMI1640, 10% FBS, 2 mM L-alanyl-L-Glutamine, 1 mM Na pyruvate or a special medium in a humidified atmosphere of 5% CO2 at 37° C. Cells were seeded into 384-well plates and incubated in a humidified atmosphere of 5% CO2 at 37° C. Compounds were added 24 h post cell seeding. At the same time, a time zero untreated cell plate was generated. After a 72 hour incubation period, cells were fixed and stained with fluorescently labeled antibodies and nuclear dye to allow visualization of nuclei, apoptotic cells and mitotic cells. Apoptotic cells were detected using an anti-active caspase-3 antibody. Mitotic cells were detected using an anti phospho-histone-3 antibody. Compounds were serially diluted 3.16-fold and assayed over 10 concentrations in a final assay concentration of 0.1% DMSO from the highest test concentration of 10 μM. Automated fluorescence microscopy was carried out using a Molecular Devices ImageXpress Micro XL high-content imager, and images were collected with a 4× objective.\nThe activated caspase-3 marker labels cells from early to late stage apoptosis. Concentrations of test compound that cause a 2-fold (Cal-X2) or 5-fold induction in the caspase-3 signal (Cal_X5) indicated significant apoptosis induction. The maximal induction of caspase 3 by compound in comparison with DMSO control was reported as Max_Fold_Change.", "data": [{"smiles": "C[C@]1(C(N)=O)CC[C@@H](n2c(Nc3c(Cl)cc(Cl)cc3Cl)nc3cnc(N[C@@H]4CCOC[C@H]4F)nc32)CC1", "note": "[Compound 1, cis-4-[2-{[(3S,4R)-3-fluorooxan-4-yl]amino}-8-(2,4,6-trichloroanilino)-9H-purin-9-yl]-1-methyl cyclohexane-1-carboxamide]", "values": [{"measurement": "CalX2", "setting": "CHL1, Skin, Melanoma", "result": 1.2376, "unit": "µM"}, {"measurement": "CalX5", "setting": "CHL1, Skin, Melanoma", "result": 10, "unit": "µM"}, {"measurement": "Max fold change", "setting": "CHL1, Skin, Melanoma", "result": 3.46}, {"measurement": "CalX2", "setting": "CMLT1, Leukemia", "result": 0.0948, "unit": "µM"}, {"measurement": "CalX5", "setting": "CMLT1, Leukemia", "result": 10, "unit": "µM"}, {"measurement": "Max fold change", "setting": "CMLT1, Leukemia", "result": 4.85}, {"measurement": "CalX2", "setting": "COLO829, Skin, Melanoma", "result": 0.0421, "unit": "µM"}, {"measurement": "CalX5", "setting": "COLO829, Skin, Melanoma", "result": 0.125, "unit": "µM"}, {"measurement": "Max fold change", "setting": "COLO829, Skin, Melanoma", "result": 24.28}, {"measurement": "CalX2", "setting": "CROAP2, Lymphoma", "result": 2.9603, "unit": "µM"}, {"measurement": "CalX5", "setting": "CROAP2, Lymphoma", "result": 4.2, "unit": "µM"}, {"measurement": "Max fold change", "setting": "CROAP2, Lymphoma", "result": 50.79}, {"measurement": "CalX2", "setting": "D283MED, CNS, Medulloblastoma", "result": 8.3456, "unit": "µM"}, {"measurement": "CalX5", "setting": "D283MED, CNS, Medulloblastoma", "result": 10, "unit": "µM"}, {"measurement": "Max fold change", "setting": "D283MED, CNS, Medulloblastoma", "result": 2.23}, {"measurement": "CalX2", "setting": "D341MED, CNS, Medulloblastoma", "result": 7.7855, "unit": "µM"}, {"measurement": "CalX5", "setting": "D341MED, CNS, Medulloblastoma", "result": 10, "unit": "µM"}, {"measurement": "Max fold change", "setting": "D341MED, CNS, Medulloblastoma", "result": 2.14}, {"measurement": "CalX2", "setting": "DAOY, CNS, Medulloblastoma", "result": 3.2773, "unit": "µM"}, {"measurement": "CalX5", "setting": "DAOY, CNS, Medulloblastoma", "result": 5.22, "unit": "µM"}, {"measurement": "Max fold change", "setting": "DAOY, CNS, Medulloblastoma", "result": 16.68}, {"measurement": "CalX2", "setting": "DAUDI, Lymphoma", "result": 3.9392, "unit": "µM"}, {"measurement": "CalX5", "setting": "DAUDI, Lymphoma", "result": 5.33, "unit": "µM"}, {"measurement": "Max fold change", "setting": "DAUDI, Lymphoma", "result": 10.08}, {"measurement": "CalX2", "setting": "DB, Lymphoma", "result": 6.1153, "unit": "µM"}, {"measurement": "CalX5", "setting": "DB, Lymphoma", "result": 6.5, "unit": "µM"}, {"measurement": "Max fold change", "setting": "DB, Lymphoma", "result": 7.11}, {"measurement": "CalX2", "setting": "DOHH2, Lymphoma", "result": 2.4833, "unit": "µM"}, {"measurement": "CalX5", "setting": "DOHH2, Lymphoma", "result": 3.99, "unit": "µM"}, {"measurement": "Max fold change", "setting": "DOHH2, Lymphoma", "result": 20.41}, {"measurement": "CalX2", "setting": "EB2, Lymphoma", "result": 5.7381, "unit": "µM"}, {"measurement": "CalX5", "setting": "EB2, Lymphoma", "result": 10, "unit": "µM"}, {"measurement": "Max fold change", "setting": "EB2, Lymphoma", "result": 4.16}, {"measurement": "CalX2", "setting": "EB3, Lymphoma", "result": 6.1469, "unit": "µM"}, {"measurement": "CalX5", "setting": "EB3, Lymphoma", "result": 7.66, "unit": "µM"}, {"measurement": "Max fold change", "setting": "EB3, Lymphoma", "result": 5.5}, {"measurement": "CalX2", "setting": "EM2, Leukemia", "result": 10, "unit": "µM"}, {"measurement": "CalX5", "setting": "EM2, Leukemia", "result": 10, "unit": "µM"}, {"measurement": "Max fold change", "setting": "EM2, Leukemia", "result": 1.55}, {"measurement": "CalX2", "setting": "G361, Skin, Melanoma", "result": 0.0428, "unit": "µM"}, {"measurement": "CalX5", "setting": "G361, Skin, Melanoma", "result": 0.12, "unit": "µM"}, {"measurement": "Max fold change", "setting": "G361, Skin, Melanoma", "result": 24.48}, {"measurement": "CalX2", "setting": "G401, Kidney", "result": 0.0717, "unit": "µM"}, {"measurement": "CalX5", "setting": "G401, Kidney", "result": 0.179, "unit": "µM"}, {"measurement": "Max fold change", "setting": "G401, Kidney", "result": 30.87}, {"measurement": "CalX2", "setting": "G402, Kidney", "result": 0.0162, "unit": "µM"}, {"measurement": "CalX5", "setting": "G402, Kidney", "result": 0.637, "unit": "µM"}, {"measurement": "Max fold change", "setting": "G402, Kidney", "result": 7.34}, {"measurement": "CalX2", "setting": "GA10, Lymphoma", "result": 0.6477, "unit": "µM"}, {"measurement": "CalX5", "setting": "GA10, Lymphoma", "result": 1.94, "unit": "µM"}, {"measurement": "Max fold change", "setting": "GA10, Lymphoma", "result": 6.49}, {"measurement": "CalX2", "setting": "H9, Lymphoma", "result": 0.0222, "unit": "µM"}, {"measurement": "CalX5", "setting": "H9, Lymphoma", "result": 0.4, "unit": "µM"}, {"measurement": "Max fold change", "setting": "H9, Lymphoma", "result": 7.33}, {"measurement": "CalX2", "setting": "HEL9217, Leukemia", "result": 3.2991, "unit": "µM"}, {"measurement": "CalX5", "setting": "HEL9217, Leukemia", "result": 6.57, "unit": "µM"}, {"measurement": "Max fold change", "setting": "HEL9217, Leukemia", "result": 6.23}, {"measurement": "CalX2", "setting": "HEPG2, Liver", "result": 0.0041, "unit": "µM"}, {"measurement": "CalX5", "setting": "HEPG2, Liver", "result": 0.0108, "unit": "µM"}, {"measurement": "Max fold change", "setting": "HEPG2, Liver", "result": 62.47}, {"measurement": "CalX2", "setting": "HLE, Liver", "result": 0.8174, "unit": "µM"}, {"measurement": "CalX5", "setting": "HLE, Liver", "result": 10, "unit": "µM"}, {"measurement": "Max fold change", "setting": "HLE, Liver", "result": 2.5}, {"measurement": "CalX2", "setting": "HLF, Liver", "result": 10, "unit": "µM"}, {"measurement": "CalX5", "setting": "HLF, Liver", "result": 10, "unit": "µM"}, {"measurement": "Max fold change", "setting": "HLF, Liver", "result": 1.95}, {"measurement": "CalX2", "setting": "HMCB, Skin, Melanoma", "result": 10, "unit": "µM"}, {"measurement": "CalX5", "setting": "HMCB, Skin, Melanoma", "result": 10, "unit": "µM"}, {"measurement": "Max fold change", "setting": "HMCB, Skin, Melanoma", "result": 1.8}, {"measurement": "CalX2", "setting": "HS294T, Skin, Melanoma", "result": 0.154, "unit": "µM"}, {"measurement": "CalX5", "setting": "HS294T, Skin, Melanoma", "result": 2.15, "unit": "µM"}, {"measurement": "Max fold change", "setting": "HS294T, Skin, Melanoma", "result": 5.74}, {"measurement": "CalX2", "setting": "HS445, Lymphoma", "result": 4.9128, "unit": "µM"}, {"measurement": "CalX5", "setting": "HS445, Lymphoma", "result": 7.7, "unit": "µM"}, {"measurement": "Max fold change", "setting": "HS445, Lymphoma", "result": 5.65}]}]}
